Experimental data published in article PMC8881512 (Nature Communications, 2022).
Where “and” joins values, the source holds several entries; their conditions need not be identical. Identical values can stand only once.

What was measured:
[1] = system: MCF-7 cells; assay: Cell proliferation by cell counting, MCF-7; format: cell-based, human; conditions: for Fold change of cell proliferation: 4OHT (0.5 μM), Fig.6f; for Cell proliferation (cell counting): 1 μM Entinostat for 4 days, Fig.1p
Description: Cell proliferation rates were determined by automated cell counter. In brief, cells were plated at density of 0.1 million cells per well in six-well plate. Cell numbers were counted by the indicated time point as stated in the figure legends.

[2] = system: MCF-7 cells; assay: Colony-formation assay, MCF-7 (wild-type and ESR1 knock-in); format: cell-based, human; conditions: for Relative colony formation: 1 μM 4OHT, 0.2 μM Fulvestrant, 2 μM VT02956, 2 μM VT02484, Fig.6g
Description: […] The drugs were refreshed every 2–4 days. The colonies were then fixed with 4% paraformaldehyde for 15 min and stained with 0.1% crystal violet in 20% methanol solution for quantification.

[3] = system: T47D cells; assay: Colony-formation assay, T47D (wild-type and ESR1 knock-in); format: cell-based; conditions: 1 μM 4OHT, 0.2 μM Fulvestrant, 2 μM VT02956, 2 μM VT02484, 14 days, Fig.6h
Description: For colony formation, cells were plated into 12-well plate with a constant density at the start date of treatment in triplicate with the indicated compounds and further cultured for 10 days (MCF-7) or 14 days (T47D). The drugs were refreshed every 2–4 days. The colonies were then fixed with 4% paraformaldehyde for 15 min and stained with 0.1% crystal violet in 20% methanol solution for quantification.

[4] = system: YAP/TAZ target, ESR1 and ERα target gene mRNA in BTO-02; assay: qPCR gene expression in breast tumour organoids BTO-02; format: cell-based, human; conditions: BTO-02 starved for E2 for 3 days, then 100 nM E2 for 2 hours; Fig.s6o;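 further: relative mRNA abundance computed by the ΔCt approach from SYBR-based real-time qPCR, with GAPDH as internal housekeeping reference for normalisation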
[5] = system: VGLL3, ESR1, YAP/TAZ target and ERα target gene mRNA in MCF-7 cells; assay: qPCR gene expression in MCF-7 cells; conditions: 1 μM Entinostat for 24 h, Fig.1o;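 further: SYBR Green real-time PCR, mRNA abundance computed by the ΔCt approach with GAPDH transcript as the internal normalisation control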
[6] = system: ER+ breast tumour organoids (BTO-02); assay: 3D organoids drug response assay (CellTiter-Glo 3D); format: cell-based, human; conditions: BTO-02; 12 days treatment with 0.2 µM Fulvestrant or 1 µM Tamoxifen; Fig.s6p
Description: Breast tumour organoids were dissociated into single cells using TrypLE Express and counted with automated cell counter. Subsequently, 1000 cells were mixed in 10 μl BME type 2, seeded onto 96-well plate in triplicate and overlaid with 100 μl BC organoid medium (BOM) after BME gelation. Three days after organoids sphere formation, medium was removed and replaced by 100 μl of complete medium containing VT02956 (0, 0.04, 0.2, 1, 5 μM) or vehicle (DMSO). The drug-containing medium was refreshed every 3 days for additional 3–4 times. At the end of the treatment, the effect of the drugs on the tumour organoids, in terms of the organoids cell growth, was assayed with CellTiter-Glo 3D (Promega) according to the manufacturer’s instructions and were normalised to vehicle controls (0.5% DMSO content). The IC50 values was calculated in GraphPad Prism 8.

[7] = system: contact between ESR1 promoter and super enhancer locus; assay: 3C library targeted bait qPCR (3C-qPCR); format: cell-based, human; conditions: MCF-7 LATS1/2 dKO + 1 µM VT107 for 2 days; relative to Parental; Fig.s5f
Description: The 3C templates were generated by combining the protocols of 3C[40] with in-situ Hi-C[41]. Briefly, 10 million cells were collected, and the cell pellet was resuspended in DPBS with formaldehyde added at a final concentration of 1% at room temperature for 10 min. […] The nuclei were further washed once by in-situ lysis buffer and resuspended in 50 μl 0.5% SDS solution at 62 °C for exactly 10 min. The SDS was then neutralised by adding 145 μl H2O and 25 μl 10% Triton X-100 at 37 °C for 15 min. After adding 100 U DpnII (NEB, #R0543) with the presence of 1x NBEuffer 3.1, the restriction enzyme digestion was conducted in a thermomixer overnight at 37 °C. The restriction enzyme was then heat inactivated by incubating at 65 °C for 20 minutes. Then the digested chromatin was re-ligated by adding 900 μl Ligation Master Mix (1.3x NEB T4 Ligase Buffer, 1.1% X-100, 0.05% BSA and 2 U/μl T4 ligase) and incubated overnight at 16 °C with constant rotation. […] The 3C DNA was then purified with phenol-chloroform, precipitated and washed in 70% ethanol, and resuspend in Elution Buffer (1 mM Tris-HCl pH 8.0, 0.1 mM EDTA) and quantified with Nanodrop. […] Library concentration was measured with Qubit sdDNA HS Assay Kit and further qualified with Tapestation. […] After sequencing quality control with FastQC and trimming of adaptor sequence with Trim Galore, reads were processed in accordance with the Umi4C pipeline.

[8] = system: ERα, YAP/TAZ phosphorylation in MCF-7 cells; assay: Immunoblot analysis, MCF-7 cells; format: cell-based, human; conditions: WT or LATS1/2 dKO MCF-7; 1 µM of VT-107 for 2 days; Supplementary Fig. 4k
[9] = molecular target: T1, TEAD-VGLL3-NCOR2 complex (Homo sapiens, UniProt Q15562); assay: TEAD2 co-immunoprecipitation with NCOR2 / VGLL3; format: cell-based; conditions: MCF7 transfected cells; Fig. 2n
T1 construct: expressed in transfected cells; host or cells: MCF-7
Description: For immunoprecipitations, cells were rinsed with ice-cold DPBS and then lysed in mild lysis buffer (150 mM NaCl, 50 mM Tris-Cl pH7.5, 0.5% Triton X-100) with protease inhibitors (Roche, #11873580001) and phosphatase inhibitors (Thermo Scientific, #88667) on ice for 30 min and centrifuged at 12,000 rpm for 10 min. Primary antibodies and Protein A/G magnetic beads (Pierce, #88803) were added to the supernatants and incubated with rotation for 3 h at 4 °C. Immunoprecipitants were washed four times with lysis buffer and were denatured by SDS-PAGE sample buffer and boiled for 5 min.

T1 sequence (Q15562 whole entry, one chain of several): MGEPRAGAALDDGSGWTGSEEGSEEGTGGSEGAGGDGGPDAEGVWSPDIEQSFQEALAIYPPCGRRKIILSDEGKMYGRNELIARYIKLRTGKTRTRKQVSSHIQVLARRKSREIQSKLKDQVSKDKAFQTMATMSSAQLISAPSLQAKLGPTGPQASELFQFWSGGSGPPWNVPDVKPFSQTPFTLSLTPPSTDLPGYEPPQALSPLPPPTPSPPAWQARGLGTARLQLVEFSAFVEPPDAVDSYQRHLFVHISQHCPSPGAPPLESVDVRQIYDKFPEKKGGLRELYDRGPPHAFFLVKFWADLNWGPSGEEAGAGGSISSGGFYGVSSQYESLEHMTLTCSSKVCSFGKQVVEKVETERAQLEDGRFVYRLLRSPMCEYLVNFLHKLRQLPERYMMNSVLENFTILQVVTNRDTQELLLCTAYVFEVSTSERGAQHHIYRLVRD

CC/C(=C(\c1ccc(O)cc1)c1ccc(OCCN(C)C)cc1)c1ccccc1 [4OHT, 4-Hydroxytamoxifen, reference compound]
Fold change of cell proliferation ([1]; MCF-7 ERα-Y537S knock-in + ctrl): 1.082 and 1.041 and 1.122
Fold change of cell proliferation ([1]; MCF-7 ERα-Y537S knock-in + sgLATS1/2): 0.2796 and 0.349 and 0.2955
Fold change of cell proliferation ([1]; MCF-7 wt + ctrl): 0.5306 and 0.5714 and 0.5918
Fold change of cell proliferation ([1]; MCF-7 wt + sgLATS1/2): 0.2041 and 0.1918 and 0.1796
Relative colony formation ([2]; MCF-7 ERa D538G knock-in): 0.71 and 0.61 and 0.66
Relative colony formation ([2]; MCF-7 ERa Y537S knock-in): 0.79 and 0.83 and 0.77
Relative colony formation ([2]; MCF-7 WT): 0.38 and 0.41 and 0.34
Relative colony formation ([3]; T47D ERa Y537S knock-in): 0.79 and 0.83 and 0.77
Relative colony formation ([3]; T47D WT): 0.41 and 0.38 and 0.44

C[C@]12CC[C@@H]3c4ccc(O)cc4CC[C@H]3[C@@H]1CC[C@@H]2O [E2, 17β-estradiol, reference compound]
GREB1 Rel. expression (BTO-02) [4]: 4.976 and 4.601 and 4.355
TFF1 Rel. expression (BTO-02) [4]: 6.504 and 6.591 and 6.279

Nc1ccccc1NC(=O)c1ccc(CNC(=O)OCc2cccnc2)cc1 [Entinostat, reference compound]
Cell proliferation (cell counting) ([1]; VGLL3 KO MCF-7): 10.42 and 9.55 and 11.21
Cell proliferation (cell counting) ([1]; Wild-type MCF-7): 4.59 and 3.87 and 4.88
ESR1 expression (qPCR) ([5]; VGLL3 KO MCF-7): 0.5015 and 0.486 and 0.4463
ESR1 expression (qPCR) ([5]; Wild-type MCF-7): 0.07832 and 0.08939 and 0.1138

C[C@]12CC[C@@H]3c4ccc(O)cc4C[C@@H](CCCCCCCCC[S+]([O-])CCCC(F)(F)C(F)(F)F)[C@H]3[C@@H]1CC[C@@H]2O (stereo partly drawn) [Fulvestrant, reference compound]
Relative colony formation ([2]; MCF-7 ERa D538G knock-in): 0.58 and 0.62 and 0.53
Relative colony formation ([2]; MCF-7 ERa Y537S knock-in): 0.68 and 0.73 and 0.65
Relative colony formation ([2]; MCF-7 WT): 0.31 and 0.26 and 0.32
Relative colony formation ([3]; T47D ERa Y537S knock-in): 0.68 and 0.73 and 0.65
Relative colony formation ([3]; T47D WT): 0.38 and 0.35 and 0.32
Rel. growth (BTO-02, %) [6]: 43.197% and 36.224% and 48.81%

CC(=O)c1c(C)c2cnc(Nc3ccc(N4CCNCC4)cn3)nc2n(C2CCCC2)c1=O [Palbociclib, reference compound]
MCF-7 growth, palbociclib combined with LATS1/2 depletion ([1]; LATS1/2 deficient MCF-7, Palbociclib 0.1 or 0.3 µM for 7 days, Supplementary Fig. 8i): dramatically reduced MCF-7 growth
Rel. colony (colony-formation assay) ([2]; MCF-7, VT02956 (2 μM), VT02484 (2 μM) or Palbociclib (0.1 μM) alone or in combinations, Fig.6d): 0.58 and 0.54 and 0.51

CC/C(=C(\c1ccccc1)c1ccc(OCCN(C)C)cc1)c1ccccc1 [Tamoxifen]
Rel. growth (BTO-02, %) [6]: 55.442% and 49.15% and 52.381%

VT-107
Rel. Contact (3C-qPCR) between ESR1 promoter and super enhancer [7]: 0.5958 and 0.5632 and 0.5017
ERα level (immunoblot) [8]: ameliorated the ERα downregulation caused by LATS1/2 dKO
TEAD2 Co-IP with VGLL3 / NCOR2 [9]: disrupted the interaction of TEAD with either VGLL3 or NCOR2
